Legend:
[1] = system: membrane vesicles purified from the midgut tissue of B. mori larvae; experiment: Uptake of radiolabeled leucine into membrane vesicles from B. mori larval midgut; assay type: biochemical, Bombyx mori; conditions: 0.2 mM test substance, 0.1 mM L-leucine, pH 10.8, 7 seconds incubation; None (control) 450 ± 20
Procedure: The effect of different esters and aminoesters was tested in vitro by measuring the uptake of radiolabeled leucine into membrane vesicles purified from the midgut tissue of B. mori larvae.
Uptakes were measured by incubating 10 μl of membrane vesicles and 40 μl of a isosmotic mixture buffered at pH 10.8 and containing 0.1 mM L-leucine, 30 μCi/ml of L-[3H]-leucine as a tracer and 0.2 mM of the substances indicated. Incubations were stopped after 7 seconds by 75-fold dilution in an ice-cold isotonic saline and filtration through cellulose filters (0.2 μm mesh). Filters were then counted for radioactivity in a scintillation counter and data were expressed per mg of membrane proteins. Vesicles were prepared by calcium precipitation and differential centrifugation from Bombyx mori larval midgut according to standard biochemical protocols.

Bombyx mori larvae = experiment: Rearing of Bombyx mori larvae on artificial diet supplemented with ester; assay type: in vivo; conditions: 130 mg per 1 kg of diet; for Percent of mortality: first three larval instars

CCC(C)CC(=O)OC (stereo not shown) [3-methylvaleric methyl ester]
Leucine uptake [1]: 800 ± 30 pmol/7s/mg membrane protein

COC(=O)CCC(C)C [4-methylvaleric methyl ester]
Leucine uptake [1]: 2600 ± 80 pmol/7s/mg membrane protein

CCOC(=O)[C@@H](N)CC(C)C [Leucine ethyl ester]
Leucine uptake [1]: 2200 ± 75 pmol/7s/mg membrane protein

COC(=O)[C@@H](N)CC(C)C [Leucine methyl ester, L-leucine methyl ester]
Leucine uptake [1]: 4500 ± 150 pmol/7s/mg membrane protein
Weight of cocoon shell (Bombyx mori larvae; Polyhybrid (28 × 15) × (10 × 14), control 0.32 ± 0.02): 0.46 ± 0.03 g
Weight of cocoon shell (Bombyx mori larvae; Race BG35, control 0.25 ± 0.02): 0.31 ± 0.01 g
Percent of mortality (Bombyx mori larvae; Polyhybrid (28 × 15) × (10 × 14), control 19): 0%
Percent of mortality (Bombyx mori larvae; Race 21 Molucelli, control 30): 20%

COC(=O)[C@@H](N)CCSC [Methionine methyl ester, L-methionine methyl ester]
Leucine uptake [1]: 4000 ± 180 pmol/7s/mg membrane protein

CCCC[C@H](N)C(=O)OC [Norleucine methyl ester]
Leucine uptake [1]: 3800 ± 100 pmol/7s/mg membrane protein

— US6610333B1, “Feed supplement for arthropods” (Universita Degli Studi di Milano, priority 1998, dated 2003)
